# Assay results: the supplement of paper PMC10307832
# Experiments:
# Assay in all cases: relative viability (nuclei count vs DMSO), 5 days (fraction); higher = more cells survive
# [1] = compound: CC(C)C[C@H](NC(=O)[C@H](CCc1ccccc1)NC(=O)CN1CCOCC1)C(=O)N[C@@H](Cc1ccccc1)C(=O)N[C@@H](CC(C)C)C(=O)[C@@]1(C)CO1 [Carfilzomib] + COc1cc2c(Oc3ccc(NC(=O)C4(C(=O)Nc5ccc(F)cc5)CC4)cc3F)ccnc2cc1OCCCN1CCOCC1 [Foretinib] (partner 0.25 µM)
# Summary of the method: (§1)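 Values are medians from duplicate plates. Each reflects relative viability, defined as the nuclei count of treated wells over that of vehicle wells. Lung cancer cell lines in 1536-well plates were pin-tool dosed one day after seeding with one drug alone or with a fixed anchor-drug dose plus five library-drug doses (not always all listed) in √10 steps, then fixed, stained and imaged at 4× after 5 days.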
# [2] = compound: CC(C)C[C@H](NC(=O)[C@H](CCc1ccccc1)NC(=O)CN1CCOCC1)C(=O)N[C@@H](Cc1ccccc1)C(=O)N[C@@H](CC(C)C)C(=O)[C@@]1(C)CO1 [Carfilzomib] + O=C(CCCCCCC(=O)Nc1ccccc1)NO [Vorinostat] (partner 1 µM)
# Summary of the method: as §1
# [3] = compound: C[C@@H](Oc1cc(-c2cnn(C3CCNCC3)c2)cnc1N)c1c(Cl)ccc(F)c1Cl [Crizotinib] + CC(=O)c1c(C)c2cnc(Nc3ccc(N4CCNCC4)cn3)nc2n(C2CCCC2)c1=O [Palbociclib] (partner 0.5 µM)
# Summary of the method: as §1
# [4] = compound: C[C@@H](Oc1cc(-c2cnn(C3CCNCC3)c2)cnc1N)c1c(Cl)ccc(F)c1Cl [Crizotinib] + NC(=O)Nc1cc(-c2cccc(F)c2)sc1C(=O)N[C@H]1CCCNC1 [AZD7762] (partner 0.2 µM)
# Summary of the method: as §1
# [5] = compound: CC(C)C[C@H](NC(=O)[C@H](CCc1ccccc1)NC(=O)CN1CCOCC1)C(=O)N[C@@H](Cc1ccccc1)C(=O)N[C@@H](CC(C)C)C(=O)[C@@]1(C)CO1 [Carfilzomib] + CCNC(=O)c1noc(-c2cc(C(C)C)c(O)cc2O)c1-c1ccc(CN2CCOCC2)cc1 [Luminespib] (partner 0.01 µM)
# Summary of the method: as §1
cell line,measurement,setting,value
NCI-H1793,relative viability,[1]; first compound 0.003162 µM,0.664
same,relative viability,[1]; first compound 0.01 µM,0.823
same,relative viability,[1]; first compound 0.03162 µM,0.707
same,relative viability,[1]; first compound 0.1 µM,0.393
same,relative viability,[2]; first compound 0.001 µM,0.605
same,relative viability,[2]; first compound 0.003162 µM,1
same,relative viability,[2]; first compound 0.01 µM,0.7
same,relative viability,[2]; first compound 0.03162 µM,0.396
same,relative viability,[2]; first compound 0.1 µM,0.107
same,relative viability,[3]; first compound 0.03162 µM,0.339
same,relative viability,[3]; first compound 0.1 µM,0.311
same,relative viability,[3]; first compound 1 µM,0.277
same,relative viability,[4]; first compound 0.03162 µM,0.435
same,relative viability,[4]; first compound 0.1 µM,0.41
same,relative viability,[4]; first compound 1 µM,0.621
same,relative viability,[5]; first compound 0.003162 µM,0.216
same,relative viability,[5]; first compound 0.01 µM,0.172
same,relative viability,[5]; first compound 0.03162 µM,0.181
same,relative viability,[5]; first compound 0.1 µM,0.154
